Test results from patent US20240239854A1, “ANTIMICROBIAL PEPTIDES AND MODIFICATIONS THEREOF” (Donald Danforth Plant Science Center, priority 2022, published 2024).
Values after ≈ are worked out from the molar mass of the structure shown. Read-outs that look alike come from different tables or passages of the source. Residues, ends and D or L forms follow the SMILES beside them. No end group written: not given here.

How the values were obtained:
Candida glabrata = assay: Antifungal MIC in RPMI medium; conditions: RPMI medium rich in cations
Coccidioides sp. = type: cell-based; conditions: Table 8
P. capsici [1] = assay: In planta assay on tomato leaves (Example 1); type: in vivo; conditions: applied on tomato leaves
Text: Antifungal activity in planta.

Candida auris [2] = assay: Antifungal MIC in RPMI medium; conditions: RPMI medium rich in cations
B. cinerea = conditions: B. cinerea; for Antifungal activity relative to the wild-type GMA4C_AC control: in vitro, low cationic conditions
[3] = system: Listeria monocytogens (F5244); assay: Antibacterial growth inhibition in Mueller-Hinton media, OD600 (Example 3); type: cell-based; conditions: Table 15; L. monocytogenes F5244; MH medium
F. graminearum = conditions: in vitro, low cationic conditions; F. graminearum
P. capsici [4] = assay: Antifungal MIC assay in SFM culture media (Example 1); type: cell-based; conditions: in vitro, low cationic conditions
[5] = system: Enterotoxigenic E. coli-F4; assay: Antibacterial growth inhibition in Mueller-Hinton media, OD600 (Example 3); type: cell-based; conditions: Table 15, MH medium
Method: Salmonella Typhimurium var. Copenhagen, Enterotoxigenic E. coli-F4 and Listeria monocytogens (F5244) strains were grown overnight on an LB agar plate at 37_C. A small number of bacteria was scraped from the plate and added to Mueller-Hinton (MH) growth media and grown to log phase. Cells were diluted to 1-3×10^6 CFU/mL and 50 μl were added to each well in a polypropylene 96-well plate. Synthesized peptide GMA4C_V1A was diluted into 0.2% BSA, 0.0100 acetic acid solution and added to the concentration of 0.2, 0.4, 0.80, 1.6, 3.25, 7.5, 15, 30 and 60 and 120 μM. Then, 50 μl of each peptide solution was added to 50 μl of bacterial cells. Plates were parafilmed and incubated at 37° C. overnight. The concentrations at which bacterial growth inhibition was determined based on the OD600 nm value at each concentration relative to the OD600 nm value of MH medium alone and that of bacterial growth in MH medium without any peptide.

Candida albicans = assay: MIC, CLSI M27/M38, half-strength potato dextrose broth (Example 2); type: cell-based; conditions: Table 8
F. oxysporum [6] = assay: Antifungal MIC assay in SFM culture media (Example 1); type: cell-based
Aspergillus fumigatus = assay: MIC, CLSI M27/M38, half-strength potato dextrose broth (Example 2); type: cell-based; conditions: for MIC (μg/ml) 100%: Table 8, Aspergillus fumigatus AF293
[7] = system: Salmonella Typhimurium var. Copenhagen; assay: Antibacterial growth inhibition in Mueller-Hinton media, OD600 (Example 3); type: cell-based; conditions: Table 15; S. Typhimurium var. Copenhagen; MH medium
Candida auris [8] = assay: MIC, CLSI M27/M38, half-strength potato dextrose broth (Example 2); type: cell-based; conditions: Table 8
C. parapsilosis = assay: as above; type: cell-based, Candida parapsilosis; conditions: Table 8; C. parapsilosis ATCC 22019
Method: (§1) MICs were determined at 24-72 hours.

F. oxysporum [9] = assay: as above; type: cell-based; conditions: Table 8
Method: as §1

F. solani = assay: as above; type: cell-based; conditions: Table 8; Fusarium F4 (F. solani)
Method: as §1

Tricophyton rubrum = assay: MIC against human nail pathogens (Example 2); type: cell-based; conditions: Table 13
[10] = system: Tricophyton metagrophytes; assay: MIC against human nail pathogens (Example 2); type: cell-based; conditions: Table 13

Compound	MIC (μg/ml) 100% (Coccidioides sp.; Coccidioides sp. Cocci 1) [µg/mL]	MIC (μg/ml) 100% (Coccidioides sp.; Coccidioides sp. Cocci2) [µg/mL]	MIC (μg/ml) 100% (Coccidioides sp.; Coccidioides sp. DI17-143) [µg/mL]	Antifungal activity relative to the wild-type GMA4C_AC control (B. cinerea)	Antifungal activity relative to the wild-type GMA4C_AC control (F. graminearum)	MIC (μg/ml) 100% (Candida albicans; Candida albicans ATCC 90028) [µg/mL]	MIC (μg/ml) 100% (Candida albicans; Candida albicans CA3) [µg/mL]	MIC (μg/ml) 100% (Candida albicans; Candida albicans SC5314) [µg/mL]	MIC (μg/ml) 100% (Aspergillus fumigatus) [µg/mL]	MIC (μg/ml) 100% (Candida auris [8]; Candida auris DI17-46) [µg/mL]	MIC (μg/ml) 100% (Candida auris [8]; Candida auris DI17-47) [µg/mL]	MIC (μg/ml) 100% (Candida auris [8]; Candida auris DI17-48) [µg/mL]	MIC (μg/ml) 100% (C. parapsilosis) [µg/mL]	also measured
CC[C@H](C)[C@H](NC(=O)[C@H](CCCNC(=N)N)NC(=O)[C@@H](NC(=O)[C@H](CS)NC(=O)[C@H](Cc1ccccc1)NC(=O)[C@H](CS)NC(=O)[C@H](CCCNC(=N)N)NC(=O)[C@H](CCCNC(=N)N)NC(=O)[C@H](CCCNC(=N)N)NC(=O)[C@H](Cc1ccccc1)NC(=O)CNC(=O)[C@H](CCCCN)NC(=O)[C@H](CS)NC(=O)[C@H](CCCNC(=N)N)NC(=O)CNC(=O)CN)[C@@H](C)O)C(=O)N[C@@H](CS)C(N)=O [GMA4C_V1A] (H-GGRCKGFRRRCFCTRIC-NH2; N-terminus assumed)	8 (≈ 3.96 µM)	4 (≈ 1.98 µM)	8 (≈ 3.96 µM)	equivalent	equivalent	8 (≈ 3.96 µM)	8 (≈ 3.96 µM)	8 (≈ 3.96 µM)	32 (≈ 15.9 µM)	8 (≈ 3.96 µM)	8 (≈ 3.96 µM)	8 (≈ 3.96 µM)	4 (≈ 1.98 µM)	Antifungal activity against C. glabrata (Candida glabrata): show antifungal activity; Reduction of disease symptoms caused by P. capsici (P. capsici [1]): more effective; Antifungal activity against C. auris (Candida auris [2]): show antifungal activity; Potency relative to GMA4C_AC in presence of cations (B. cinerea; 100 mM NaCl or 100 mM KCl): 2 fold; Fungal growth inhibition at 6 μM (B. cinerea; in presence of 2 mM CaCl2, peptide 6 μM): inhibit fungal growth; Concentrations at which growth inhibition was observed [3]: 15 to 30 µM; Antifungal activity relative to the wild-type GMA4C_AC control (P. capsici [4]): equivalent; Concentrations at which growth inhibition was observed [5]: 7.5 to 60 µM; F. oxysporum MIC (F. oxysporum [6]; Table 2, SFM culture media): 6 μuM; Antifungal activity relative to the wild-type GMA4C_AC control (F. oxysporum [6]; in vitro, low cationic conditions, F. oxysporum): equivalent; Concentrations at which growth inhibition was observed [7]: 15 to 60 µM
CC[C@H](C)[C@H](NC(=O)[C@H](CCCNC(=N)N)NC(=O)[C@@H](NC(=O)[C@H](CS)NC(=O)[C@H](Cc1ccccc1)NC(=O)[C@H](CS)NC(=O)[C@H](CCCNC(=N)N)NC(=O)[C@H](CCCNC(=N)N)NC(=O)[C@H](CCCNC(=N)N)NC(=O)[C@H](Cc1ccccc1)NC(=O)CNC(=O)[C@H](CCCNC(=N)N)NC(=O)[C@H](CS)NC(=O)[C@H](CCCNC(=N)N)NC(=O)CNC(=O)CN)[C@@H](C)O)C(=O)N[C@@H](CS)C(N)=O [GMA4C_V2A] (H-GGRCRGFRRRCFCTRIC-NH2; N-terminus assumed)	8 (≈ 3.91 µM)	16 (≈ 7.82 µM)	16 (≈ 7.82 µM)	two-fold reduction	two-fold reduction	16 (≈ 7.82 µM)	16 (≈ 7.82 µM)	16 (≈ 7.82 µM)	32 (≈ 15.6 µM)	16 (≈ 7.82 µM)	16 (≈ 7.82 µM)	16 (≈ 7.82 µM)	8 (≈ 3.91 µM)	MIC (μg/ml) 100% (F. oxysporum [9]; Fusarium F1 (F. oxysporum)): 8 µg/mL (≈ 3.91 µM); MIC (μg/ml) 100% (F. oxysporum [9]; Fusarium F2 (F. oxysporum)): 16 µg/mL (≈ 7.82 µM); MIC (μg/ml) 100% (F. solani): 8 µg/mL (≈ 3.91 µM)
OeDef1_V3: OeDef1 variant of Table 13, printed with SEQ ID NO: 769, the number of GMAOe1C_V3 (GACLKNRHSKHYGWFWYYRHCY; not fully specified (C-terminus); cysteine pairing not given here)														MIC Tricophyton rubrum (23014) (Tricophyton rubrum): 4.0 µM; MIC Aspergillus fumigatus (36843) (Aspergillus fumigatus; Table 13): >7.9 µM; MIC Tricophyton metagrophytes (26103) [10]: 4.0 µM
